Assay results taken from patent US20240016788A1, “PHARMACEUTICAL COMPOSITION FOR PREVENTING OR TREATING DIABETIC AND POSTMENOPAUSAL OSTEOPOROSIS, CONTAINING ADIPORON” (PnP Biopharm Co., Ltd., priority 2020, published 2024).

How the values were obtained:
Assay type in all cases: in vivo
[1] = test system: type 2 diabetic db/db mice; experiment: Micro-CT of ilium (femur) and lumbar vertebra 5, db/db mice; details: adiporon 30 mg/kg/day, 4 weeks
Method: A leptin receptor-defective type 2 diabetic animal model (db/db mice) and a normal control group (db/m mice) were used, and the experiment was performed by dividing into 4 groups as follows: non-diabetic control group (dm cont, n=8), non-diabetic adiporon treatment group (dm+AdipoR, n=8), diabetic control group (db cont, n=8) and diabetic adiporon treatment group (db+AdipoR, n=8). The control group was fed a normal diet, and the adiporon treatment group was fed a diet comprising adiporon (30 mg/kg/day) for 4 weeks from 16 weeks of age. During the experiment, body weight was measured every week, fasting blood glucose was measured using an Accu-Chek meter (Roche Diagnostics, St. Louis, MO) every 2 weeks after blood was collected from the tail vein, and glycated hemoglobin (HbA1c) was measured every 4 weeks using a […] automatic analyzer (Bayer healthcare LLC, IN) after blood was collected from the tail vein. The temperature and humidity of the breeding room were maintained at 20˜25° C. and 50˜60%, respectively, and the lights were turned on and off at 12-hour intervals. The imaging was performed with micro-CT (Skyscan 1172, Belgium), the tube voltage was 60 kV, the tube current was 167 uA, 0.5 mm aluminum filtration was used, and the pixel size was 5.9 μm. For the shooting angle, a 2-dimensional image was reconstructed with Nrecon Reconstruction (Skyscan, Belgium). For 3D image analysis, CTAn (Skyscan, Belgium) was used, images were obtained by rotating 360°, and exposure time was 440 ms. A total of 7 types of indicators were used in this invention. BMD (bone mineral density, bone density) was measured based on phantoms of 0.25 g/cm^3 and 0.75 g/cm^3. BV/TV (Bone volume/Total volume, percent bone volume, %) is the ratio of voxels representing the solid region out of the total voxels present in the binarized and surfaced volume of interest, and it means the ratio occupied by bone trabeculae within the volume of interest, and i.s (Interception surfaces, mm2) means the generation of new bone. […] BS/BV (Bone surface/Bone volume, bone specific surface, mm^−1) is the ratio of the voxel surface area to the number of voxels in the binarized solid region within the volume of interest and it means the ratio of the surface area of the trabecular bone to the volume of the trabecular bone. The lower the value, the higher the bone strength. Tb.Th (trabecular thickness, mm) is obtained by averaging the diameters of these spheres, after placing a sphere comprising the corresponding voxel for each voxel representing the solid region within the volume of interest so that the size of the sphere is the largest that includes only the solid region and it means the average thickness of the trabecular bone. […] In the same way, using Tb.Sp (trabecular separation, mm), the average length between trabecular lines and Tb.N (trabecular number, mm^−1) were used to obtain the average number of trabecular lines.

[2] = test system: ovariectomized C57BL/6 mice; experiment: Growth plate staining (trichrome, Safranin O) of ilium, ovariectomized mice; details: 6 weeks
Method: 7 weeks after ovariectomization or sham surgery of 7-week-old C57BL/6 mice, normal feed group (adiporon non-administered group; control group) administration group, 2.5 mg/kg day or 25 mg/kg day, respectively Feed comprising adiporon was consumed for 6 weeks from 14 weeks of age. Body weight was measured every week during the experiment period, and the experiment was conducted after 6 weeks of administration. […] Thereafter, after neutralization with 0.5M Phosphate buffer (pH 7.4), washing, and embedding in paraffin. Tissue sections were cut to a thickness of 5 μm, and hematoxylin and eosin staining (H&E staining), trichrome staining, and Safranin O staining were performed. In bone tissue, double immunofluorescence staining method was performed using anti-adiponectin receptor 1/2 antibody, anti-perilipin-1 antibody, anti-RANKL antibody, anti-TNF-α antibody, and ApopTag Fluorescein In Situ Apoptosis Detection Kit (Chemicon International, Temecula, CA) and expression was observed using a confocal microscope.

[3] = test system: ovariectomized C57BL/6 mice; experiment: Western blot of bone tissue, ovariectomized mice; details: for Decreased expression of adiponectin-receptor 1/2 (western blot): 6 weeks
Method: 7 weeks after ovariectomization or sham surgery of 7-week-old C57BL/6 mice, normal feed group (adiporon non-administered group; control group) administration group, 2.5 mg/kg day or 25 mg/kg day, respectively Feed comprising adiporon was consumed for 6 weeks from 14 weeks of age. Body weight was measured every week during the experiment period, and the experiment was conducted after 6 weeks of administration.
Protein was extracted using Pro-Prep Protein Extraction Solution (Intron Biotechnology, Gyeonggi-Do, Korea), and SDS-PAGE (sodium dodecyl sulfate-polyacrylamide gel electrophoresis) was performed. The separated protein was transferred to a nitrocellulose membrane (Amersham Co., Buckinghamshire, England) and treated with Tris buffered saline (in TBS-T: 0.1% Tween-20 in Tris buffer saline, pH 7.5) containing 3% skim milk. After blocking for an hour, the blots were reacted in adiponectin receptor 1/2, total AMPK, phospho-Thr172AMPK, PGC-1α, Nrf-2, SOD1/2, NQO1, HO-1, NOX4, NF-κB and β-actin primary antibody solution, washing, reacting with a secondary antibody against each primary antibody, and then photosensitizing through ECL (Pierce, Rockford IL) to confirm the band. The expression level of each protein was normalized according to β-actin.

[4] = ilium (femur), adiporon 2.5 or 25 mg/kg day, dose not distinguished
[5] = vertebrae (lumbar vertebrae 5), adiporon 2.5 or 25 mg/kg day, dose not distinguished

Cl.O=C(COc1ccc(C(=O)c2ccccc2)cc1)NC1CCN(Cc2ccccc2)CC1 [adiporon]
Bone mineral density index (micro-CT) ([1]; ilium): significantly increased and improved
Bone surface index (micro-CT) ([1]; ilium): significantly increased and improved
Bone volume index (micro-CT) ([1]; ilium): significantly increased and improved
Trabecular number index (micro-CT) ([1]; ilium): significantly increased and improved
Trabecular thickness index (micro-CT) ([1]; ilium): significantly increased and improved
Trabecular thickness (micro-CT) ([1]; vertebrae (lumbar vertebrae 5)): increased and improved
Decreased thickness of the iliac growth plate ([2]; adiporon 2.5 mg/kg day): increased
Decreased thickness of the iliac growth plate ([2]; adiporon 25 mg/kg day): increased
Decreased expression of adiponectin-receptor 1/2 (western blot) ([3]; ilium (femur), adiporon 2.5 mg/kg day): restored
Decreased expression of adiponectin-receptor 1/2 (western blot) ([3]; ilium (femur), adiporon 25 mg/kg day): restored
Activation of adiponectin-receptor 1-AMPK [3, 4]: increased
Expression of PGC-1α [3, 4]: increased
Expression of adiponectin-receptor 2-PPARα [3, 4]: increased
Decreased expression of adiponectin-receptor 1/2 (western blot) ([3]; vertebrae (lumbar vertebrae 5), adiporon 2.5 mg/kg day): restored
Decreased expression of adiponectin-receptor 1/2 (western blot) ([3]; vertebrae (lumbar vertebrae 5), adiporon 25 mg/kg day): restored
Activation of adiponectin-receptor 1-AMPK [3, 5]: increased
Expression of PGC1α [3, 5]: increased
Expression of adiponectin-receptor 2-PPARα [3, 5]: increased
